Values of other authors in US20050004224A1, “Treatment of Alzheimer's disease with the R(-) isomer of a 2-arylpropionic acid non-steroidal anti-inflammatory drug alone or in combination with a cyclooxygenase-2 selective inhibitor” (Pharmacia Corporation, priority 2003, published 2005).

Legend:
[1] = tested on: patients with osteoarthritis; conditions: Singer et al. 2000
[2] = tested on: murine cells; conditions: Ogawa et al. 2000
[3] = tested on: neuronal cells; conditions: Blasko et al. 2001
[4] = tested on: A-beta 1-42 peptide; conditions: Weggen et al. 2001
[5] = Lambat et al. 2000
[6] = Lambat et al. 2000; remark: listed apart in the source
[7] = tested on: AD models; conditions: chronic ibuprofen; some AD models; Lim et al. 2001
[8] = Asanuma et al. 2001

CC(C)Cc1ccc([C@H](C)C(=O)O)cc1 (single isomer, unassigned) [S(+) isomer of ibuprofen]
effective NSAID for patients with osteoarthritis [1]: effective

CC(=O)Oc1ccccc1C(=O)O [aspirin]
beta-amyloid protein and interferon-gamma-induced NO production [2]: did not produce such an effect

CC(C)Cc1ccc(C(C)C(=O)O)cc1 (stereo not drawn) [ibuprofen, α-methyl-4-[isobutyl]phenylacetic acid]
cytokine-induced amyloid Beta production [3]: reduced
production of the amyloidogenic A-beta 1-42 peptide [4]: reduced
quinolinic acid-induced lipid peroxidation [5]: reducing
cyanide-induced speroxide production [6]: reducing
beta-amyloid protein and interferon-gamma-induced NO production [2]: reduced
inflammation and plaque-related pathology [7]: suppress

COc1ccc2c(c1)c(CC(=O)O)c(C)n2C(=O)c1ccc(Cl)cc1 [indomethacin]
production of the amyloidogenic A-beta 1-42 peptide [4]: reduced
beta-amyloid protein and interferon-gamma-induced NO production [2]: reduced

CC(C(=O)O)c1cccc(C(=O)c2ccccc2)c1 (stereo not drawn) [ketoprofen]
nitric oxide-scavenging ability [8]: have such activity

CSc1ccc(/C=C2/C(C)=C(CC(=O)O)c3cc(F)ccc32)cc1 [sulindac sulfide]
production of the amyloidogenic A-beta 1-42 peptide [4]: reduced
